Experimental data: the supplement of paper PMC10307832

Experiments:
Experiment in all cases: relative viability (nuclei count vs DMSO), 5 days (fraction); higher = more cells survive
Everolimus + OSI-027 = compound: CO[C@H]1C[C@@H]2CC[C@@H](C)[C@@](O)(O2)C(=O)C(=O)N2CCCC[C@H]2C(=O)O[C@H]([C@H](C)C[C@@H]2CC[C@@H](OCCO)[C@H](OC)C2)CC(=O)[C@H](C)/C=C(\C)[C@@H](O)[C@@H](OC)C(=O)[C@H](C)C[C@H](C)/C=C/C=C/C=C/1C [Everolimus] + COc1cccc2cc(-c3nc([C@H]4CC[C@H](C(=O)O)CC4)n4ncnc(N)c34)[nH]c12 [OSI-027] (partner 0.5 µM)
In short: (§1)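 Cells from lung cancer lines were seeded into 1536-well plates and, one day later, dosed by pin tool. Treatments were either a single drug or a fixed dose of an anchor drug with five library-drug doses (not always all listed) in √10 steps. After 5 days, nuclei were stained in a one-step fixation (final 0.05% Triton X-100, 1% formaldehyde, 1 ug/ml Hoechst) and counted on 4× images, and relative viability is the treated-to-vehicle nuclei ratio, as the median of duplicate plates.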

Everolimus + Luminespib = compound: CO[C@H]1C[C@@H]2CC[C@@H](C)[C@@](O)(O2)C(=O)C(=O)N2CCCC[C@H]2C(=O)O[C@H]([C@H](C)C[C@@H]2CC[C@@H](OCCO)[C@H](OC)C2)CC(=O)[C@H](C)/C=C(\C)[C@@H](O)[C@@H](OC)C(=O)[C@H](C)C[C@H](C)/C=C/C=C/C=C/1C [Everolimus] + CCNC(=O)c1noc(-c2cc(C(C)C)c(O)cc2O)c1-c1ccc(CN2CCOCC2)cc1 [Luminespib] (partner 0.01 µM)
In short: as §1

Everolimus + Lapatinib = compound: CO[C@H]1C[C@@H]2CC[C@@H](C)[C@@](O)(O2)C(=O)C(=O)N2CCCC[C@H]2C(=O)O[C@H]([C@H](C)C[C@@H]2CC[C@@H](OCCO)[C@H](OC)C2)CC(=O)[C@H](C)/C=C(\C)[C@@H](O)[C@@H](OC)C(=O)[C@H](C)C[C@H](C)/C=C/C=C/C=C/1C [Everolimus] + CS(=O)(=O)CCNCc1ccc(-c2ccc3ncnc(Nc4ccc(OCc5cccc(F)c5)c(Cl)c4)c3c2)o1 [Lapatinib] (partner 2 µM)
In short: as §1

Everolimus + Linsitinib = compound: CO[C@H]1C[C@@H]2CC[C@@H](C)[C@@](O)(O2)C(=O)C(=O)N2CCCC[C@H]2C(=O)O[C@H]([C@H](C)C[C@@H]2CC[C@@H](OCCO)[C@H](OC)C2)CC(=O)[C@H](C)/C=C(\C)[C@@H](O)[C@@H](OC)C(=O)[C@H](C)C[C@H](C)/C=C/C=C/C=C/1C [Everolimus] + C[C@]1(O)C[C@@H](c2nc(-c3ccc4ccc(-c5ccccc5)nc4c3)c3c(N)nccn32)C1 [Linsitinib] (partner 1 µM)
In short: as §1

Cell Line	relative viability (Everolimus + OSI-027; first compound 0.01 µM)	relative viability (Everolimus + OSI-027; first compound 0.03162 µM)	relative viability (Everolimus + OSI-027; first compound 0.1 µM)	relative viability (Everolimus + OSI-027; first compound 0.3162 µM)	relative viability (Everolimus + OSI-027; first compound 1 µM)	relative viability (Everolimus + Luminespib; first compound 0.01 µM)	relative viability (Everolimus + Luminespib; first compound 0.03162 µM)	relative viability (Everolimus + Luminespib; first compound 0.1 µM)	relative viability (Everolimus + Luminespib; first compound 0.3162 µM)	relative viability (Everolimus + Luminespib; first compound 1 µM)	relative viability (Everolimus + Lapatinib; first compound 0.01 µM)	relative viability (Everolimus + Lapatinib; first compound 0.03162 µM)	relative viability (Everolimus + Lapatinib; first compound 0.1 µM)	relative viability (Everolimus + Lapatinib; first compound 0.3162 µM)	relative viability (Everolimus + Lapatinib; first compound 1 µM)	relative viability (Everolimus + Linsitinib; first compound 0.01 µM)	relative viability (Everolimus + Linsitinib; first compound 0.03162 µM)	relative viability (Everolimus + Linsitinib; first compound 0.1 µM)	relative viability (Everolimus + Linsitinib; first compound 0.3162 µM)	relative viability (Everolimus + Linsitinib; first compound 1 µM)
NCI-H2228	0.23	0.295	0.237	0.21	0.265	0.114	0.185	0.145	0.131	0.115	0.89	0.7	0.705	0.582	0.793	0.272	0.351	0.552	0.249	0.364
NCI-H727	0.425	0.392	0.467	0.345	0.444	0.47	0.372	–	0.345	0.365	0.435	0.543	0.402	0.527	0.561	0.207	0.2	0.203	0.291	0.362
NCI-H650	0.372	–	0.446	0.392	0.363	0.858	–	0.511	0.609	0.345	0.652	–	0.716	0.598	0.479	0.53	–	0.506	0.512	0.557
NCI-H520	0.21	0.179	0.218	0.185	0.193	0.23	0.237	0.215	0.235	0.206	0.379	0.39	0.313	0.285	0.405	0.533	0.441	0.532	0.343	0.372
NCI-H661	0.471	0.44	0.433	0.4	0.511	0.821	0.767	0.659	0.688	0.534	0.358	0.428	0.341	0.276	0.299	0.473	0.575	0.361	0.319	0.306
LK-2	0.152	0.153	0.167	0.162	0.172	0.179	–	0.171	0.177	0.189	0.664	0.533	0.787	0.471	0.449	0.426	0.497	0.286	0.282	0.198
NCI-H1993	0.566	0.554	0.53	0.529	0.553	0.528	0.459	0.366	0.456	0.58	0.725	0.69	0.649	0.791	0.807	0.689	0.63	0.666	0.694	0.691
NCI-H838	0.262	0.252	0.233	0.259	0.334	0.206	0.153	0.198	0.172	0.266	0.517	0.535	0.48	0.439	0.625	0.329	0.372	0.303	0.326	0.318
NCI-H1437	0.379	0.363	0.344	0.365	0.487	1.12	1.11	1.08	1.06	0.948	0.642	0.55	0.464	0.508	0.417	0.589	0.598	0.493	0.36	0.279
SK-LU-1	0.225	0.187	0.248	0.269	0.265	0.183	0.147	0.174	0.164	0.168	0.638	0.624	0.576	0.49	0.61	0.501	0.66	0.552	0.614	0.631
BEN	0.247	0.292	0.272	0.253	0.239	0.191	0.152	0.201	0.161	0.168	0.366	0.302	0.28	0.34	0.377	0.571	0.355	0.338	0.334	0.326
LC-2-ad	0.669	0.7	0.602	0.618	0.569	1.17	1.05	0.832	1.08	0.892	0.924	0.874	0.941	0.931	1.08	0.75	0.744	0.781	0.766	0.702
COR-L23	0.334	0.352	0.374	0.419	0.367	0.417	0.377	0.461	0.431	0.268	0.744	0.829	0.804	1.01	0.918	0.552	0.501	0.603	0.708	0.652
RERF-LC-KJ	0.449	0.358	0.313	0.411	0.429	0.895	0.834	0.807	0.848	0.646	0.636	0.597	0.503	0.487	0.486	0.86	0.679	0.609	0.531	0.571
NCI-H1915	0.531	0.516	0.45	0.512	0.49	0.722	0.714	0.478	0.532	0.579	0.903	0.904	0.877	0.826	0.88	0.994	0.973	0.935	0.914	0.827
